Source: ChEMBL document CHEMBL3885861, “Open TG-GATES”

Species: Rattus norvegicus
Test: Open TG-GATES - Regimen: Single
Format: toxicity, organism-based, Sprague-Dawley
Design: regimen Single, gender Male, age 6 weeks
Conditions: in vivo, po, 100 mg/kg, route gavage, dose level Low; for APTT / Bas / Eos / Fbg / Hb / Ht / Lym / MCH / MCHC / MCV / Mono / Neu / PT / Plat / RBC / Ret / WBC: tissue Blood; for KIDNEY_L / KIDNEY_R / KIDNEY_TOTAL: tissue Kidney; for LIVER: tissue Liver; for A/G / ALP / ALT / AST / BUN / CRE / Ca / Cl / DBIL / GLC / IP / K / LDH / Na / PL / RALB / TBIL / TC / TG / TP / gamma-GTP: tissue Plasma

SMILES: O=C(OC[C@H]1O[C@@H](OC(=O)c2cc(O)c(O)c(OC(=O)c3cc(O)c(O)c(O)c3)c2)[C@H](OC(=O)c2cc(O)c(O)c(OC(=O)c3cc(O)c(O)c(O)c3)c2)[C@@H](OC(=O)c2cc(O)c(O)c(OC(=O)c3cc(O)c(O)c(O)c3)c2)[C@@H]1OC(=O)c1cc(O)c(O)c(OC(=O)c2cc(O)c(O)c(O)c2)c1)c1cc(O)c(O)c(OC(=O)c2cc(O)c(O)c(O)c2)c1 [TANNIC ACID]
- TERMINAL_BW (3 h): 188.9 g
- APTT (3 h): 16.1 s
- Bas (3 h): 0%
- Eos (3 h): 1.2%
- Fbg (3 h): 212.2 mg/dL
- Hb (3 h): 13 g/dL
- Ht (3 h): 38.5%
- Lym (3 h): 82%
- MCH (3 h): 22.2 pg
- MCHC (3 h): 33.8%
- MCV (3 h): 65.6 fL
- Mono (3 h): 5.8%
- Neu (3 h): 11.2%
- PT (3 h): 11.5 s
- Plat (3 h): 112.2 x10_4/uL
- RBC (3 h): 587 x10_4/ul
- Ret (3 h): 10.1%
- WBC (3 h): 96.7 x10_2/uL
- KIDNEY_L (3 h): 0.9 g
- KIDNEY_R (3 h): 0.9 g
- KIDNEY_TOTAL (3 h): 1.7 g
- LIVER (3 h): 8.6 g
- A/G (3 h): 2
- ALP (3 h): 882 IU/L
- ALT (3 h): 37.8 IU/L
- AST (3 h): 70.2 IU/L
- BUN (3 h): 15.8 mg/dL
- CRE (3 h): 0.5 mg/dL
- Ca (3 h): 10.9 mg/dL
- Cl (3 h): 105 meq/L
- DBIL (3 h): 0.018 mg/dL
- GLC (3 h): 198 mg/dL
- IP (3 h): 10.2 mg/dL
- K (3 h): 4.9 meq/L
- LDH (3 h): 75 IU/L
- Na (3 h): 139.2 meq/L
- PL (3 h): 128.8 mg/dL
- RALB (3 h): 3.5 g/dL
- TBIL (3 h): 0.5 mg/dL
- TC (3 h): 68.6 mg/dL
- TG (3 h): 47.6 mg/dL
- TP (3 h): 5.3 g/dL
- gamma-GTP (3 h): 2.2 IU/L
- TERMINAL_BW (6 h): 185 g
- APTT (6 h): 17.1 s
- Bas (6 h): 0%
- Eos (6 h): 1%
- Fbg (6 h): 212.6 mg/dL
- Hb (6 h): 12.7 g/dL
- Ht (6 h): 37.9%
- Lym (6 h): 78.4%
- MCH (6 h): 22.6 pg
- MCHC (6 h): 33.5%
- MCV (6 h): 67.3 fL
- Mono (6 h): 6.4%
- Neu (6 h): 14.6%
- PT (6 h): 12 s
- Plat (6 h): 109.6 x10_4/uL
- RBC (6 h): 564 x10_4/ul
- Ret (6 h): 10.4%
- WBC (6 h): 85.8 x10_2/uL
- KIDNEY_L (6 h): 0.9 g
- KIDNEY_R (6 h): 0.9 g
- KIDNEY_TOTAL (6 h): 1.8 g
- LIVER (6 h): 8.5 g
- A/G (6 h): 2
- ALP (6 h): 684.8 IU/L
- ALT (6 h): 38.6 IU/L
- AST (6 h): 70.4 IU/L
- BUN (6 h): 12.6 mg/dL
- CRE (6 h): 0.5 mg/dL
- Ca (6 h): 10.8 mg/dL
- Cl (6 h): 105 meq/L
- DBIL (6 h): 0.032 mg/dL
- GLC (6 h): 188.2 mg/dL
- IP (6 h): 10.4 mg/dL
- K (6 h): 4.5 meq/L
- LDH (6 h): 102.8 IU/L
- Na (6 h): 140.6 meq/L
- PL (6 h): 140.2 mg/dL
- RALB (6 h): 3.5 g/dL
- TBIL (6 h): 0.5 mg/dL
- TC (6 h): 86 mg/dL
- TG (6 h): 41.4 mg/dL
- TP (6 h): 5.3 g/dL
- gamma-GTP (6 h): 1.2 IU/L
- TERMINAL_BW (9 h): 180.9 g
- APTT (9 h): 16.4 s
- Bas (9 h): 0%
- Eos (9 h): 1%
- Fbg (9 h): 217.4 mg/dL
- Hb (9 h): 13.2 g/dL
- Ht (9 h): 39.3%
- Lym (9 h): 80.4%
- MCH (9 h): 22.3 pg
- MCHC (9 h): 33.6%
- MCV (9 h): 66.5 fL
- Mono (9 h): 6.8%
- Neu (9 h): 12%
- PT (9 h): 12 s
- Plat (9 h): 112.9 x10_4/uL
- RBC (9 h): 591.6 x10_4/ul
- Ret (9 h): 10.1%
- WBC (9 h): 105.1 x10_2/uL
- KIDNEY_L (9 h): 0.8 g
- KIDNEY_R (9 h): 0.8 g
- KIDNEY_TOTAL (9 h): 1.6 g
- LIVER (9 h): 7.2 g
- A/G (9 h): 2
- ALP (9 h): 837.8 IU/L
- ALT (9 h): 35.2 IU/L
- AST (9 h): 64.2 IU/L
- BUN (9 h): 12.6 mg/dL
- CRE (9 h): 0.4 mg/dL
- Ca (9 h): 10.3 mg/dL
- Cl (9 h): 106.4 meq/L
- DBIL (9 h): 0.072 mg/dL
- GLC (9 h): 190.2 mg/dL
- IP (9 h): 10.2 mg/dL
- K (9 h): 4.9 meq/L
- LDH (9 h): 101.4 IU/L
- Na (9 h): 137.6 meq/L
- PL (9 h): 135.2 mg/dL
- RALB (9 h): 3.6 g/dL
- TBIL (9 h): 0.5 mg/dL
- TC (9 h): 78.8 mg/dL
- TG (9 h): 24.6 mg/dL
- TP (9 h): 5.4 g/dL
- gamma-GTP (9 h): 1.6 IU/L
- TERMINAL_BW (24 h): 201.1 g
- APTT (24 h): 16.7 s
- Bas (24 h): 0%
- Eos (24 h): 1%
- Fbg (24 h): 227.8 mg/dL
- Hb (24 h): 12.8 g/dL
- Ht (24 h): 38.4%
- Lym (24 h): 78.8%
- MCH (24 h): 21.9 pg
- MCHC (24 h): 33.4%
- MCV (24 h): 65.6 fL
- Mono (24 h): 5.4%
- Neu (24 h): 14.8%
- PT (24 h): 11.7 s
- Plat (24 h): 114.5 x10_4/uL
- RBC (24 h): 585.2 x10_4/ul
- Ret (24 h): 10.1%
- WBC (24 h): 96.6 x10_2/uL
- KIDNEY_L (24 h): 0.9 g
- KIDNEY_R (24 h): 0.9 g
- KIDNEY_TOTAL (24 h): 1.8 g
- LIVER (24 h): 9.7 g
- A/G (24 h): 2
- ALP (24 h): 823.4 IU/L
- ALT (24 h): 41.2 IU/L
- AST (24 h): 63 IU/L
- BUN (24 h): 17.8 mg/dL
- CRE (24 h): 0.5 mg/dL
- Ca (24 h): 10.8 mg/dL
- Cl (24 h): 103.8 meq/L
- DBIL (24 h): 0.008 mg/dL
- GLC (24 h): 190.6 mg/dL
- IP (24 h): 8.7 mg/dL
- K (24 h): 4.5 meq/L
- LDH (24 h): 98.2 IU/L
- Na (24 h): 138 meq/L
- PL (24 h): 147.2 mg/dL
- RALB (24 h): 3.6 g/dL
- TBIL (24 h): 0.3 mg/dL
- TC (24 h): 81.4 mg/dL
- TG (24 h): 101.6 mg/dL
- TP (24 h): 5.5 g/dL
- gamma-GTP (24 h): 1 IU/L
